The text below walks through data of paper PMC9103105 (2022).

The test system of assay [1] is aptamer 1.12.2 (DNA, aptamer) GATCGGGTGTGGGTGGCGTAAAGGGAGCATCGGACA
The assay is described as follows: fluorescence anisotropy titration. To be noted: 100 mM Na+ (acetate), 10 mM MgCl2, 10 mM CaCl2; 20 mM Tris-acetate pH 8.4, room temperature.

The subject of assay [2] is Mut2 (DNA, aptamer) GATCGGGTGTGGGTGGCGTAAAGGGAGCATCGG
Nature of the assay: fluorescence anisotropy titration. Particulars: 100 mM Na+ (acetate), 10 mM MgCl2, 10 mM CaCl2; 20 mM Tris-acetate pH 8.4, room temperature.

For assay [3], the system named is aptamer 1.12.2 (DNA, aptamer) GATCGGGTGTGGGTGGCGTAAAGGGAGCATCGGACA
Nature of the assay: fluorescence anisotropy competition. To be noted: 100 mM Na+ (acetate), 10 mM MgCl2, 10 mM CaCl2, 20 mM Tris-acetate pH 8.4, 90 nM aptamer. In general terms: In fluorescence polarisation assays a small probe gives low polarisation when free and higher when bound to something large.

The test system of assay [4] is aptamer–ssDNA {6–15} complex (DNA, duplex) GATCGGGTGTGGGTGGCGTAAAGGGAGCATCGGACA/CACCCACACC
The assay is described as follows: circular dichroism. To be noted: 100 mM Na+ (acetate), 10 mM MgCl2, 10 mM CaCl2; 20 mM Tris-acetate pH 8.4, room temperature; 1 µM complex, up to 10 µM OTA. On the technique in general: Circular dichroism is the unequal absorption of left and right circularly polarised light.

For assay [5], the system named is aptamer 1.12.2 (DNA, aptamer) GATCGGGTGTGGGTGGCGTAAAGGGAGCATCGGACA
Nature of the assay: ITC. Particulars: 100 mM Na+ (acetate), 10 mM MgCl2, 10 mM CaCl2; 20 mM Tris-acetate pH 8.4, 25 °C; one-site model.

Each structure is given as a SMILES string.

One may read the KD as the free concentration of one partner at which half of the binding sites on the other are occupied at equilibrium, for simple one-to-one binding.

On to `C[C@@H]1Cc2c(Cl)cc(C(=O)N[C@@H](Cc3ccccc3)C(=O)NCc3c(O)ccc4c3Oc3cc(O)ccc3C43OC(=O)c4ccccc43)c(O)c2C(=O)O1` (stereo partly drawn), for which the values for the KD in assay [1] and in assay [2] were 183 ± 14 nM and 192 nM, respectively.
On to `C[C@@H]1Cc2c(Cl)cc(C(=O)N[C@@H](Cc3ccccc3)C(=O)O)c(O)c2C(=O)O1`, for which the L50 in assay [3] (tracer 5 nM OTA-Flu displaced) is 106.2 ± 6.4 nM. The same compound came in with a KI in assay [3] (tracer OTA-Flu displaced) of 36.3 ± 2.1 nM. For the same compound, the binding entry in assay [4] is “no”. The KD in assay [5] stood at 131 ± 32 nM.
